Reference: US20130005762A1, “COMBINATION OF DROLOXIFENE AND CLOPIDOGREL” (TCP Innovations Limited, priority 2009, published 2013)
Entries after “also recorded” stand apart in the source; their conditions may differ. Structures can show the parent of a compound that is named as a salt.

Key:
[1] = test system: rat aortic smooth muscle cells; assay: TGF-beta Production Stimulator functional assay: suppression of smooth muscle cell proliferation reversible by neutralising anti-TGF-beta1 antibody; format: cell-based, Wistar rat; settings: compared side-by-side with Tamoxifen
Text: In order compare Droloxifene with other triphenylethylenes, we have exploited a functional assay for TGF-beta1 activity. Alternative approaches are less suitable for various reasons: it is not possible to directly measure TGF-beta protein production by cultured cells in response to triphenylethylenes because the TGF-beta that is produced remains associated with the cells or the extracellular matrix and is therefore not available for assay (for example, by ELISA) in the conditioned medium from the cultured cells. […] The specificity of such an assay is achieved by comparing the rate of proliferation of the smooth muscle cells in the presence or absence of a validated, highly specific neutralising antibody against TGF-beta (or TGF-beta1, as required).
The cells were prepared by enzyme dispersion of isolated rat aortae exactly as described previously (Grainger et al (1993) Biochem. J. 294(1):109-12 and the references therein). The cells were cultured (37° C.; 5% CO2) in DMEM+10% foetal calf serum (FCS), and subcultured every 4 days at 1:2 dilution, using 0.02% trypsin/EDTA (Gibco). Experiments were performed between the sixth and twentieth subculture.
For the experiments, the cells were subcultured into 12-well cluster plates, and allowed to grow for 24 hrs. […] The cells were then incubated for 72 hrs. All treatment conditions were established in triplicate. One triplicate of cells was counted (see below) at Oh. All other wells were counted at 72 hrs.
The number of cells in each well was determined as follows: the well was washed three times with serum-free DMEM, aspirated and then incubated with 100 μl of trypsin/EDTA solution (Gibco) for 2 minutes at 37° C. Complete release of the cell monolayer was confirmed microscopically. The cell density in portion of this suspension was determined by counting using an Improved Neubauer hameocytometer, ensuring the suspension was uniform by gentle pipetting, prior to sampling. The cell density was converted to the absolute number of cells present in the well by multiplying the number of cells per μl by the total volume of suspension (100 μl). For each condition, the mean number of cells at the end of the experiment was calculated by meaning the number of cells in each well of triplicate.
The extent of proliferation of the cell culture under each condition was determined by subtracting the mean number of cells at time Oh from the mean number of cells under that condition at time 72 h. The amount of TGF-beta1 activity under each condition was determined by subtracting the inhibition of growth achieved in the presence of neutralising anti-TGF-beta1 antibody (AB-101-NA; R&D Systems) from the inhibition of growth achieved in the absence of antibody.

[2] = Effect of co-administered triphenylethylenes on clopidogrel metabolism in vivo (CLP*-acetamide by LC-MS); parameters: species or system Sprague-Dawley rats; settings: oral gavage; for effect on clopidogrel metabolism (in words): 0.1 to 10 mg/kg with 10 mg/kg clopidogrel
Method: Adult male Sprague-Dawley rats are dosed with various triphenylethylenes at different doses from 0.1 mg/kg to 10 mg/kg (spanning the likely doses such compounds would be used in man), or with vehicle only, and simultaneously dosed with 10 mg/kg clopidogrel, both by oral gavage. Blood samples are drawn through an in-dwelling jugular catheter at 0.5, 1, 2, 4, 8 and 24 hrs post-dose, and serum is prepared by conventional methods well known in the art.
The level of CLP*, the active metabolite of clopidogrel is then determined in each blood sample by LC-MS by collecting the blood samples in tubes containing the thiol alkylating agent iodeoacetamide. Iodoacetamide reacts with CLP* to generate a stable product which can be detected by LC-MS using standard methodology well known in the art. An authentic sample of the acetamide adduct of CLP* is used to quantify the level of CLP*-acetamide in the sample. […] The concentration of CLP*-acetamide adduct can therefore be assumed to be proportional to the concentration of CLP*. The pharmacokinetics of CLP*-acetamide are then compared under the different conditions, using standard pharmacokinetics models implemented with WinNonLin.

[3] = Meta-analysis of cardiovascular outcomes of women treated with Tamoxifen (Braithwaite et al.); format: in vivo; settings: translated from the relative risk
Text: This translates to a 33% reduction in risk, which, if replicated among higher risk groups such as men, would result in at least 10,000 fewer deaths due to myocardial infarction in the UK alone each year, and five times that number in the US.

[4] = analog 0.1 mg/kg with 10 mg/kg clopidogrel
[5] = analog 1 mg/kg with 10 mg/kg clopidogrel
[6] = analog 10 mg/kg with 10 mg/kg clopidogrel

Row | Structure (SMILES) | TGF-beta Production Stimulator activity (in words) [1] | TGF-beta Production Stimulator activity (in words) ([1]; listed as raloxifene) | % inhibition of CLP*-acetamide Cmax compared to vehicle control [2, 4] [%] | % inhibition of CLP*-acetamide Cmax compared to vehicle control [2, 5] [%] | % inhibition of CLP*-acetamide Cmax compared to vehicle control [2, 6] [%] | effect on clopidogrel metabolism (in words) [2] | effect on clopidogrel metabolism (in words) ([2]; listed as droloxifene) | reduction in risk of death from myocardial infarction [3] [%]
1 | O=C(c1ccc(OCCN2CCCCC2)cc1)c1c(-c2ccc(O)cc2)sc2cc(O)ccc12 [Raloxifene] | does not have measurable activity | substantially less active; also recorded: does not stimulate the production of TGF-beta1 | −18 | 11 |  |  |  | 
2 | CC/C(=C(\c1ccc(I)cc1)c1ccc(OCCN2CCCC2)cc1)c1ccccc1 [Idoxifene] |  |  | 2 | 6 | 48 |  |  | 
3 | CC/C(=C(/c1ccc(OCCN(C)C)cc1)c1cccc(O)c1)c1ccccc1 [Droloxifene, (E)-1-(4′-(2-dimethylaminoethoxy)phenyl)-1-(3-hydroxyphenyl)-2-phenylbut-1-ene] | comparable activity |  | 0 | −19 | −7 | no effect on clopidogrel metabolism | no effect on the pharmacokinetics of clopidogrel | 
4 | CC/C(=C(\c1ccccc1)c1ccc(OCCN(C)C)cc1)c1ccccc1 [tamoxifen citrate] | no difference |  |  |  |  |  |  | 
5 | CC/C(=C(\c1ccccc1)c1ccc(OCCN(C)C)cc1)c1ccccc1 [Tamoxifen] |  |  |  |  |  |  |  | 33
